As a reminder, the Ki is a dissociation constant, usually derived from enzyme kinetics or from competition with a known ligand. Lower therefore signals a stronger hold on the target.

In test [1] the test system is serotonin 1A receptor. The following applies: background statement; cited from earlier work.
The test system of test [2] is serotonin 1A receptor of medulla oblongata. To be noted: through serotonin 1A receptor of medulla oblongata; cited from earlier work.
Test [3] has as its target T1, serotonin 1A (5-HT1A) receptor (Rattus norvegicus, UniProt P19327).
T1 sequence (P19327 1-422): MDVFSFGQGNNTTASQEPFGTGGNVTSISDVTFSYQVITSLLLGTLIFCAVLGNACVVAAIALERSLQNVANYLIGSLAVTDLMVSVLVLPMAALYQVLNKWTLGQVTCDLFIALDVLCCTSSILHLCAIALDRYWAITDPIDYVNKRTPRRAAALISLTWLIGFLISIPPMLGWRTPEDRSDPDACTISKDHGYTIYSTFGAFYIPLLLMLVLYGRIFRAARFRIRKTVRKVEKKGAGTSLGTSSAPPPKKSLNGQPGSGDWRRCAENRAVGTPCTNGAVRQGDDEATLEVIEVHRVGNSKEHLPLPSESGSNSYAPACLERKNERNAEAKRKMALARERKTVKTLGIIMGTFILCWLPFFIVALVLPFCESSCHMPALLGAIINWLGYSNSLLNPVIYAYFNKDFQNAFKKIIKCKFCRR
The test can be described thus: Affinity for serotonin 1A (5-HT1A) receptor, 3H-8-OH-DPAT binding test. The following applies: rat hippocampus, 0.2 nM 3H-8-OH-DPAT, pH 7.4, 37° C., 10 min. The protocol: Affinity for serotonin 1A (5-HT1A) receptor [^3 H-8-Hydroxy-2-dipropylaminotetralin (^3 H-8-OH-DPAT) binding test]
Preparation of crude synaptosome fraction and binding assay were conducted in accordance with the method reported in Journal of Neurochemistry, vol. 44, page 1685, 1985 by Hall et al. Freezed hippocampus dissected out from rats were homogenized in 40 volumes of ice-cold 50 mM Tris-HCl buffer (pH 7.4) and the suspension was centrifuged at 500×g for 10 minutes at 0° C. The supernatant was centrifuged at 40,000×g for 20 minutes at 0° C. and the resulting pellet was homogenized in 40 volumes of the above buffer and incubated at 37° C. for 10 minutes. After completion of reaction, the suspension was centrifuged at 40,000×g for 20 minutes at 0° C. The resulting pellet was washed twice by resuspension in 40 volumes of the above buffer and centrifugation, and finally suspended in 60 volumes of ice-cold 50 mM Tris-HCl buffer (pH 7.4) containing 1 mM manganese chloride for use in the next assay.
To the aliquots (900 μl) of synaptosome membranes solution were added 50 μl of tritiated 8-OH-DPAT solution at the terminal concentration of 0.2 nM and 50 μl of test compound solution or 50 μl of its medium, and incubated at 37° C. for 10 minutes. Then, to the mixture was added 5 ml of ice-cold 50 mM Tris-HCl buffer (pH 7.4), rapidly vacuum-filtered through Whatman GF/B filters and washed twice with 5 ml of the same buffer. The radioactivity of the residue remaining on the filters was measured by liquid scintillation counter. Nonspecific binding was determined under the presence of 10^-5 M serotonin (5-HT). 50% Inhibition concentration (IC50) of the test compound was graphically determined and the inhibition constant (Ki value) was calculated.

Test [4] addresses T2, serotonin 2 (5-HT2) receptor (Rattus norvegicus, UniProt P14842).
T2 construct: Freezed cerebral cortex dissected out from rats were homogenized; from tissue; host or cells: rat cerebral cortex, crude synaptosome fraction
Kind of test: Affinity for serotonin 2 (5-HT2) receptor, 3H-Ketanserin binding test. The following applies: rat cerebral cortex, 0.2 nM 3H-Ketanserin, pH 7.7, 37° C., 20 min. The protocol: Affinity for serotonin 2 (5-HT2) receptor (^3 H-Ketanserin binding test)
Preparation of crude synaptosome fraction and binding assay were conducted according to the method reported in Molecular Pharmacology, vol. 21, page 301, 1981 by Leysen et al.
Freezed cerebral cortex dissected out from rats were homogenized in 30 volumes of ice-cold 0.32 M sucrose solution and the suspension was centrifuged at 1000×g for 10 minutes at 10° C. The supernatant was centrifuged at 40,000×g for 20 minutes at 0° C. and the resulting pellet was homogenized in 30 volumes of ice-cold 50 mM Tris-HCl buffer (pH 7.7), and incubated at 37° C. for 10 minutes. The suspension was centrifuged at 40,000×g for 20 minutes at 0° C. again. The resulting pellet was homogenized in 100 volumes of the above buffer and provided as synaptosome membranes solution for the next assay.
To the aliquots (900 μl) of synaptosome membranes solution were added 50 μl of ^3 H-Ketanserin solution at the terminal concentration of 0.2 nM and 50 μl of test compound solution or 50 μl of its medium, and incubated at 37° C. for 20 minutes. After completion of the reaction, the mixture was rapidly vacuum-filtered through Whatman GF/B filters. The filters were washed three times with 5 ml of the above buffer, and then the radioactivity of the residue remaining on the filters was measured by liquid scintillation counter. Nonspecific binding was determined under the presence of 10 μM of mianserin. 50% Inhibition concentration (IC50) of the test compound was graphically determined and the inhibition constant (Ki value) was calculated.

Test [5] addresses dopamine 2 (D2) receptor (Rattus norvegicus, UniProt P61169). The test can be described thus: Affinity for dopamine 2 (D2) receptor, 3H-Spiperone binding test. To be noted: rat corpus striatum, 0.2 nM 3H-Spiperone, pH 7.1, 37° C., 20 min.
The subject of test [6] is Wistar rats. The test can be described thus: Anxiolytic effect (Vogel type conflict test). The class given is in vivo. The following applies: Rattus norvegicus, po; orally 1 hour before test; lowest dose significantly different from 0.5% MC control, P<0.05; read-out: Anxiolytic effect MED (minimum effective dose). On the procedure: Anxiolytic effect (Vogel type conflict test) The test was conducted according to the method of Vogel et al. Wistar rats deprived of water for 72 hours before the test were used. The rats were placed in a plexiglas conflict test box (light compartment: 38×38×20 cm, dark compartment: 10×10×20 cm). A water bottle with a stainless steel spout was fitted to the middle of the outside, so that the spout extended 3 cm into the box at a height of 10 cm above the grid floor. A drinkometer circuit (Ohara Inc., Nihon Koden) was connected with the spout and the number of licks were counted. The rat was placed into the apparatus where an electric shock (0.2-0.3 mA, 0.3 sec) was given once every 20th lick. After the rat received first electric shock, the number of shocks were recorded during the subsequent 3 min. test period. The test compounds were administered orally 1 hour before the test. The minimum effective dose (MED) was defined as the lowest dose producing a statistically significant difference between 0.5% MC-treated (control) and test drug treated punished responses (One-way ANOVA test; P<0.05).

The subject of test [7] is benzodiazepine receptor. To be noted: background statement; cited from earlier work.
In test [8] the test system is serotonin 1A receptor. The following applies: by an interaction with serotonin 1A receptor; cited from earlier work.

Counter-ions that a name gives are not always drawn.

dopamine 2 (D2) receptor, sequence (P61169 whole entry): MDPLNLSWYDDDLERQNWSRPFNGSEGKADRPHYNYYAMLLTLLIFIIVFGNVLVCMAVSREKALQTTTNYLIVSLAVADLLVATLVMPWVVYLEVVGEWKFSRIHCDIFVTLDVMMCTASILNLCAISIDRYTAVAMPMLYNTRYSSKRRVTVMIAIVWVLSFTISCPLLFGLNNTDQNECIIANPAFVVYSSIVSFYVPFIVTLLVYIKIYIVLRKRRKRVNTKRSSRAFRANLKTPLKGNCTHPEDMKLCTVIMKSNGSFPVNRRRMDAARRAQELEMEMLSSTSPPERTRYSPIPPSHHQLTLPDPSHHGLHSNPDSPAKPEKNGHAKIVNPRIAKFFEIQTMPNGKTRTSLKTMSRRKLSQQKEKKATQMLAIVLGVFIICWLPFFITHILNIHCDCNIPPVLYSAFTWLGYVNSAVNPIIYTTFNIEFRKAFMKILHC
T2 sequence (P14842 whole entry): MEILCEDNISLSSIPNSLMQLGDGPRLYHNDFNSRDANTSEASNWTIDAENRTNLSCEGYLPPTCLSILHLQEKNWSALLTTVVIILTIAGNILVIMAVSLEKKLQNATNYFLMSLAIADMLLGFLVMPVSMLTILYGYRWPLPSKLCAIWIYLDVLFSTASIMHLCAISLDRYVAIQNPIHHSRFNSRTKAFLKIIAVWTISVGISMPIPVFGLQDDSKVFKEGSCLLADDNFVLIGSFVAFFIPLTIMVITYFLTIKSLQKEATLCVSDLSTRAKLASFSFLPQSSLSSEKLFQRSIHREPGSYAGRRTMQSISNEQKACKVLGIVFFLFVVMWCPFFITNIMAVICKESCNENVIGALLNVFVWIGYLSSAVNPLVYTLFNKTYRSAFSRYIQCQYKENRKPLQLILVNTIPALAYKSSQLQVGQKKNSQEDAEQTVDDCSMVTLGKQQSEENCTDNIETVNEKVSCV

With `CCCN(CCC)C1CCc2cccc(O)c2C1` (centres unmarked) [8-hydroxy-2-dipropylaminotetralin], the “affinity for serotonin 1A receptor” value in test [1] is on record as “high affinity”. For the same compound, the “effect on blood pressure” value in test [2] is listed as “lowers blood pressure”.
For the compound `CC(=O)c1cc2c(s1)CCCN(CCCCN1CCN(c3ncccn3)CC1)C2=O` [13 (maleate)], the Ki came out at 1.6 nM in test [3], 1400 nM in test [4] and 190 nM in test [5]. The minimal effective dose in test [6] is 1 mg/kg.
For `Cc1cc2c(s1)CCCN(CCCCN1CCN(c3ncccn3)CC1)C2=O` [15 (hydrochloride)] the same measures were 2.1 nM, 1500 nM, 140 nM and 2.5 mg/kg.
In the case of `O=C1c2cc(Br)sc2CCCN1CCCCN1CCN(c2ncccn2)CC1` [Example 11, 2-Bromo-5-[4-(4-(2-pyrimidinyl)-1l-piperazinyl)butyl]-5,6,7,8-tetrahydro-4H-thieno[3,2-c]azepin-4-one fumarate], the Ki in test [3] was 0.89 nM; in test [4], 900 nM; in test [5], 100 nM.
As to `CCc1cc2c(s1)CCCN(CCCCN1CCN(c3ncccn3)CC1)C2=O.O=C(O)/C=C/C(=O)O` [Example 46, 2-ethyl-5-[4-(4-(2-pyrimidinyl)-1-piperazinyl)butyl]-5,6,7,8-tetrahydro-4H-thieno[3,2-c]azepin-4-one fumarate], the Ki was found to be 1.3 nM in test [3], 990 nM in test [4] and 78 nM in test [5]. Further, the minimal effective dose in test [6] is ≤ 1 mg/kg.
Consider `O=C1c2ccsc2SCCN1CCCCN1CCN(c2ncccn2)CC1` [Example 103, 2,3-dihydro-4-[4-(4-(2-pyrimidinyl)-1-piperazinyl)butyl]thieno[3,2-f]-1,4-thiazepin-5( (4H)-one fumarate], for which the Ki in test [3] is 5.2 nM; in test [4], 1800 nM; in test [5], 1800 nM.
As for `O=C1c2cc(Br)sc2SCCN1CCCCN1CCN(c2ncccn2)CC1` [Example 107, 7-bromo-2,3-dihydro-4-[4-(4-(2-pyrimidinyl)-1-piperazinyl)butyl]thieno[3,2-f]-1,4-thiazepin-5(4H)-one fumarate 1/2 hydrate], the results for the Ki in test [3], in test [4] and in test [5] were 1.5 nM, 990 nM and 120 nM, respectively.
`CC(=O)c1cc2c(s1)SCCN(CCCCN1CCN(c3ncccn3)CC1)C2=O` [Example 117, 7-acetyl-2,3-dihydro-4-[4-(4-(2-pyrimidinyl)-1-piperazinyl)butyl]thieno[3,2-f]-1,4-thiazepin-5(4H)-one]: the Ki in test [3] was 4.1 nM; in test [4], 1800 nM; in test [5] it was 270 nM. Also, the minimal effective dose in test [6] was 5 mg/kg.
With `CCc1cc2c(s1)SCCN(CCCCN1CCN(c3ncccn3)CC1)C2=O` [Example 121, 7-ethyl-2,3-dihydro-4-[4-(4-(2-pyrimidinyl)-1-piperazinyl)thieno[3,2-f]-1,4-thiazepin-5(4H)-one hydrochloride 3/2 hydrate], the Ki came to 1.4 nM in test [3], 1100 nM in test [4] and 150 nM in test [5].
Turning to `CC(O)c1cc2c(s1)CCCN(CCCCN1CCN(c3ncccn3)CC1)C2=O.O=C(O)/C=C\C(=O)O` (centres unmarked) [Example 155, 2-(1-Hydroxyethyl)-5-[4-(4-(2-pyrimidinyl)-1-piperazinyl)butyl]-5,6,7,8-tetrahydro-4H-thieno[3,2-c]azepin-4-one maleate], the Ki in test [3] was found to be 0.81 nM; in test [4] it was 2100 nM; in test [5], 170 nM. In test [6], the minimal effective dose came to 2.5 mg/kg.
The like results for `Cc1cc2c(s1)CCCN(CCCCNCC1COc3ccccc3O1)C2=O.Cl` (centres unmarked) [Example 163, 5-[4-((1,4-Benzodioxan-2-yl)methylamino)butyl]-2-methyl-5,6,7,8-tetrahydro-4H-thieno[3,2-c]azepin-4-one hydrochloride] were, in that order, 0.15 nM, 1200 nM, 6.2 nM and 2.5 mg/kg.
Consider `O=C1CC2(CCCC2)CC(=O)N1CCCCN1CCN(c2ncccn2)CC1` [buspirone], for which the “affinity for serotonin 1A receptor” value in test [1] is reported as “high affinity”. In addition, the “binding to benzodiazepine receptor” value in test [7] is on record as “not to bind”. The antianxietic action entry in test [8] is given as “exhibits antianxietic action”.

Source of the values: patent publication US5141930A, “Fused thiophene compounds and uses thereof” (Yoshitomi Pharmaceutical Industries, Ltd., priority 1990, dated 1992).
